These results are taken from publication PMC6270263, “Factors Influencing the Antifolate Activity of Synthetic Tea-Derived Catechins” (Molecules, 2013).

In data set [1] the target is T1, free recombinant human DHFR (rHDHFR) (Homo sapiens, UniProt P00374).
T1 construct: made in house; host or cells: Bombyx mori chrysalides
T1 sequence (P00374 1-187): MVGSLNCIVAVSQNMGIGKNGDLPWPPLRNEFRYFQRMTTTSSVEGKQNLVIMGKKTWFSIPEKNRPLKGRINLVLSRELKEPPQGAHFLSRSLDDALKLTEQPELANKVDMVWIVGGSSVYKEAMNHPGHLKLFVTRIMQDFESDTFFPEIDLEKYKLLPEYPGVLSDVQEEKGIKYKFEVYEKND
In words: Binding of polyphenols to free rHDHFR by fluorescence quenching titration. On the procedure: Natural and synthetic derivatives of tea catechins have shown to be good inhibitors of human DHFR [7, 11, 16, 18]. To determine the ability of natural and synthetic polyphenols to bind DHFR, we performed a structure-activity study by analyzing the binding of these polyphenols to DHFR using fluorescence quenching. Effective binding to free recombinant human DHFR (rHDHFR) was determined by measuring the decrease in enzyme fluorescence that occurs upon the formation of the enzyme-inhibitor complex. […] The dissociation constants of the synthetic compounds were on the same order as those of the natural analogues, indicating the high DHFR binding capacities of these new derivatives.
The dissociation constants for the binding of polyphenols to free recombinant human DHFR (rHDHFR) were determined by fluorescence titration in an automatic-scanning FluoroMax-3 (Jobin Ybon, Horiba, Edison, NJ, USA) spectrofluorometer with 1.0 cm light path cells and a 150 W mercury-xenon light source. The formation of a binary complex between the enzyme (2.5 × 10^−7 M) and the ligand (from 0 to 40 µM) was followed by measuring the quenching of the tryptophan fluorescence of the enzyme upon the addition of microliter volumes of a concentrated stock solution of ligand. Experiments were performed at pH 7.5 in a buffer containing 2-(N-morpholino)ethanesulfonic acid (Mes, 0.025 M), sodium acetate (0.025 M), tris(hydroxymethyl)aminomethane (Tris 0.05 M), and NaCl (0.1 M). The temperature was controlled at 25 °C using a Haake D1G circulating bath with a heater and cooler. Fluorescence emission spectra were recorded when the human DHFR fluorescence was excited at 290 nm, and titrations were performed as described elsewhere.

Data set [2] concerns the target T2, bovine serum albumin (BSA) (Bos taurus, UniProt P02769).
T2 construct: purchased Sigma-Aldrich
Put plainly: Competitive site-marker (warfarin, ibuprofen) binding to BSA. Particulars: for Kd: BSA, 25 °C, read-out: Binding constant (KA) (converted). On the procedure: Next, the site selective binding of both EGCG and TMCG to BSA was analyzed. The capability of serum albumins to bind to aromatic and heterocyclic compounds is largely dependent on the existence of two major binding regions, namely site-I and site-II [25]. Warfarin and ibuprofen are fluorescence probes whose primary binding sites to BSA are site-I and site-II, respectively.
To identify the binding sites of EGCG and TMCG in BSA, the displacements of warfarin and ibuprofen (known to bind at site I and site II, respectively) were followed fluorometrically. Equimolar solutions of BSA and warfarin (5 × 10^−6 M each) were mixed for 1 h and titrated with EGCG and TMCG in separate experiments. Similar solutions containing equimolar ibuprofen and BSA were prepared and separately titrated with EGCG and TMCG to identify the binding sites of EGCG and TMCG with BSA. Titration was followed fluorometrically using an excitation wavelength of 280 nm.

The structures appear in SMILES notation. Where two headings read alike, the source gives them in different places.

T2 sequence (P02769 25-607): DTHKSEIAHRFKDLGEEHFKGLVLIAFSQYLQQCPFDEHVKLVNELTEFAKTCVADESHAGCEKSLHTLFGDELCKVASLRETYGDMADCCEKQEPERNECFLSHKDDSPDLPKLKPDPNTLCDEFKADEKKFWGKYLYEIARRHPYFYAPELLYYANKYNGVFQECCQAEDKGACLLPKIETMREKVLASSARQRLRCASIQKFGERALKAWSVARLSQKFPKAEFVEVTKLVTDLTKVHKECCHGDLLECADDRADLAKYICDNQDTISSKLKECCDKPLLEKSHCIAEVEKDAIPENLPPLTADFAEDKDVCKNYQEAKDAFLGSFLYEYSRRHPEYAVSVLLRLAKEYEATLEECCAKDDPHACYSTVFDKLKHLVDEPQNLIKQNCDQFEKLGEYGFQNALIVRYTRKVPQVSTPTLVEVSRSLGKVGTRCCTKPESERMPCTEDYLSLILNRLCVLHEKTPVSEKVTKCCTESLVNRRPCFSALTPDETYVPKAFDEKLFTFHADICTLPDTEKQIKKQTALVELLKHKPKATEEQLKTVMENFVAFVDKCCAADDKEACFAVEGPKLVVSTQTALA

As to `COc1cc(C(=O)O[C@H]2Cc3c(O)cc(O)cc3O[C@@H]2c2ccc(O)c(O)c2)cc(OC)c1OC` [TMCG], the Kd in data set [1] (Table 2, restates Table 1, read-out: KD, order of binding strengths to rHDHFR depending on D-ring substitution) was 0.9 µM; in data set [1] (pH 7.5, 25 °C, fluorescence titration, read-out: Dissociation constant KD of free rHDHFR), 0.9 ± 0.1 µM; in data set [2] (site marker: Blank), 5.26 µM; in data set [2] (site marker: Ibuprofen), 9.09 µM; in data set [2] (site marker: Warfarin), 20 µM. In addition, the “Site selective binding to BSA” value in data set [2] (competition with warfarin (site-I) and ibuprofen (site-II)) was “higher specificity for site-I”.
